Measurements reported in patent US20250122253A1, “REGULATING MICROTUBULE DYNAMICS AS A THERAPEUTIC TARGET FOR NERVE REPAIR” (City University of Hong Kong, priority 2023, published 2025).

Experiments:
spinal neurons = conditions: background statement; paclitaxel in rats; cited from earlier work
tubulin = conditions: epothilone B: cultured rat cortical neurons; cited from earlier work
[1] = chronic exposure, high doses in animals; cited from earlier work
[2] = test system: regenerating sensory axons of the injured sciatic nerve; assay: Sciatic nerve pinch test after sciatic nerve crush injury; format: in vivo, mice; conditions: AAV2/9-Fmn2-shRNA mice; 3 days after sciatic nerve injury; LMK-235 20 mg/kg intraperitoneally 3 consecutive days
Method: Sciatic nerve crush or transection injury was performed in anesthetized adult male C57BL/6 or Fmn2^−/− mice (8-12 weeks old) as previously described. Briefly, the left sciatic nerve was exposed at mid-thigh level. For crush injury, the exposed nerve was crushed with smooth forceps (Dumont #5/45 Forceps, Fine Science Tools) at the sciatic notch for 15 seconds. For sciatic nerve transection, an epineural suture was first made at the level of external rotator muscle, just distal to the sciatic notch. The exposed nerve was then transected using a pair of ophthalmic microscissors just distal to the suture. After injury, the overlying muscle and skin were sutured using a 5-0 suture (Ethilon), and the mice were allowed to recover on a heated pad, and returned to their home cages after recovery. The surgeon was blinded to the genotypes and treatments.
For in vivo gene silencing of Fmn2 and/or Hdac5 in DRGs, AAV2/9-Fmn2-shRNA and AAV2/9-Hdac5-shRNA at a titer of 5×10^12 vg/mL (OBIO Technology) were injected into the sciatic nerve directly through a glass micropipette using a microinjector (Harvard Apparatus) two weeks before sciatic nerve crush injury. The mice were then subjected to sciatic nerve crush injury and sciatic nerve pinch test (FIG. 4) and animal behavioural assessment (FIG. 15). The expression of shRNAs was under the control of the U6 promoter, and the expression of the reporter gene eGFP was under the control of the CAG promoter. AAV2/9-scr-shRNA (Packgene) was used as a negative control (see FIG. 22 for the shRNA sequences). On a separate batch of animals, the knockdown efficiency in DRGs was assessed by Western blot analysis in AAV2-Fmn2-shRNA and AAV2-Hdac5-shRNA mice two weeks after the AAV injection (FIGS. S8B and S9). […]
Sciatic nerve pinch test was performed in the ipsilateral side 3 days after sciatic nerve crush injury. […] The distance (in mm) representing the length of axonal regrowth was recorded from the crushed site to the most distal point of sciatic nerve whereas initial withdrawal reflex was observed after pinching. […]

pHDAC5 = assay: Western blot of pHDAC5 in sciatic nerve segments 0-6 mm distal to the crush site; format: in vivo, mice; conditions: AAV2/9-Fmn2-shRNA mice; 3 days after injury
Method: (§1) Ipsilateral L4/5 DRG neurons were harvested at various time points following sciatic nerve injury as indicated. Sciatic nerves were harvested 3 days after crush injury and segmented into 0-6 mm distal to the crush site. Each protein sample was pooled from 3 mice. DRG neurons and segmented sciatic nerves were mechanically dissociated with protein lysis buffer, and subjected to measurement of protein concentration using protein BCA assay (Pierce). Protein lysate (30 μg) was separated on 4-12% NuPAGE Tris-Glycine precast gel (Invitrogen). Protein was then transferred onto a PVDF membrane (Bio-Rad) and blocked with 5% non-fat milk (Bio-Rad) in TBS-T. The membrane was incubated with anti-FMN2 (1:500; ProteinTech), anti-phosphorylated HDAC5 (1:500, ThermoFisher), anti-HDAC5 (1:500, Novus Biologicals), anti-acetylated tubulin (1:10,000; Sigma-Aldrich), anti-NeuN (1:500; Millipore), anti-SOX10 (1:500; Abcam), anti-IBA-1 (1:1,000; Wako), anti-GFP (1:1,000; Cell Signaling), and anti-GAPDH antibodies (1:2,000; ProteinTech) as loading controls. The membrane was incubated with secondary antibody conjugated with horseradish peroxidase (1:2,000; Thermo-Fisher). Signals were detected using West Femto Maximum Sensitivity Substrate Kit (Thermo Scientific). […] Band intensities were measured using Image Lab software (Bio-Rad). […]

acetylated tubulin = assay: Western blot of acetylated tubulin/total tubulin in sciatic nerve segments 0-6 mm distal to the crush site; format: in vivo, mice; conditions: AAV2/9-Fmn2-shRNA mice; 3 days after injury
Method: as §1

damaged axons = conditions: background statement; cited from earlier work

Structure (SMILES): C/C(=C\c1csc(C)n1)[C@@H]1C[C@@H]2O[C@]2(C)CCC[C@H](C)[C@H](O)[C@@H](C)C(=O)C(C)(C)[C@@H](O)CC(=O)O1 [Epothilone B]
- axon regeneration after spinal cord injury (spinal neurons): promoted in vivo axon regeneration
- tubulin polymerization at growing tips / growth cones (tubulin): induced rapid tubulin polymerization
- peripheral neuropathy [1]: cause chemotherapy-induced peripheral neuropathy

Structure (SMILES): Cc1cc(C)cc(C(=O)NOCCCCCC(=O)NO)c1 [LMK-235]
- effect on the axon regrowth-promoting effect in AAV2/9-Fmn2-shRNA mice [2]: completely eliminated the axon regrowth-promoting effect
- reduction of pHDAC5 protein expression in AAV2/9-Fmn2-shRNA mice (pHDAC5): 70%
- acetylated tubulin expression in sciatic nerves of AAV2/9-Fmn2-shRNA mice (acetylated tubulin): increased acetylated tubulin expression

Structure (SMILES): CC(=O)O[C@H]1C(=O)[C@@]2(C)[C@H]([C@H](OC(=O)c3ccccc3)[C@]3(O)C[C@H](OC(=O)[C@H](O)[C@@H](NC(=O)c4ccccc4)c4ccccc4)C(C)=C1C3(C)C)[C@]1(OC(C)=O)CO[C@@H]1C[C@@H]2O [paclitaxel]
- axon regeneration after spinal cord injury (spinal neurons): facilitated in vivo axon regeneration
- tubulin polymerization at growing tips / growth cones (tubulin): induced active tubulin polymerization

Structure (SMILES): O=C(CCCCCN1C(=O)c2cccc3cccc(c23)C1=O)NO [scriptaid]
- axonal regrowth after PNI (damaged axons): markedly stalled axonal regrowth
